Consider four compounds from paper PMC11820680, “Synthesis of (1,10-Phenanthroline-κ^2N,N′)(β^2-Methyl- and β^2-PhenylAlaninate-κ^2N,O)Copper(II) Nitrate Complexes and Their Antiproliferative Activity on MCF-7 and A549 Cancer Cell Lines” (Molecules, 2025).

The subject of experiment [1] is MCF-7 (breast cancer). The arrangement: method as in doi:10.1016/j.ica.2020.119542. As to conditions: value taken from previous work ref 16; cited from earlier work.
Experiment [2] concerns HEK293. Also noted: method as in doi:10.1016/j.ica.2020.119542. As to conditions: value taken from previous work ref 16; cited from earlier work.
Experiment [3] deals with A549, MCF-7, HaCaT and HEK293 cell lines. As to conditions: previously calculated value for the cell lines evaluated; cited from earlier work.
For experiment [4], the system named is A549, MCF-7, HEK293, and HaCaT cell cultures. Description: DNA fragmentation assay (agarose gel). Format: cell-based. From the text:
DNA fragmentation is a characteristic process of apoptosis. During apoptosis, cell DNA is broken into fragments of specific sizes (multiples of 180–200 bp) due to the action of nucleases activated by effector caspases (caspase-3, caspase-7, and caspase-6). To visualize DNA fragmentation on agarose gels, cultures of MCF-7, A549, HEK293, and HaCaT cells treated with complexes 3 and 4 were harvested under the same conditions as the acridine orange/propidium iodide assay and their nuclei stained. Cell cultures were treated with complexes 3 and 4 using the IC50 calculated previously. Cultures were harvested and centrifuged at 12,000 rpm; pellets were washed twice with PBS and resuspended in lysis buffer (10 mM Tris-HCl (pH 7.4), 5 mM EDTA, 0.2% Triton X-100) with RNase and incubated for 1 h at 37 °C. […]. Proteinase K was then added and incubated for 2 h at 55 °C. Extraction was performed with phenol:chloroform:isoamyl. To precipitate DNA, 96% ethanol, 10 M ammonium acetate, and glycogen were added. Finally, the samples were resuspended in 1X Buffer TE and stored at −20 °C. DNA was electrophoretically separated on a 2% agarose gel with ethidium bromide and visualized by UV transillumination.

Experiment [5] shares this test system. In words: Nuclei staining with Hoechst 33258. Format: cell-based. An excerpt: Hoechst dyes are excited by UV light (~360 nm) and emit a broad spectrum of blue light with a maximum at 460 nm. Upon binding to DNA, they increase their fluorescence 30-fold, which ensures a good signal-to-noise ratio. This increase in fluorescence is due to the suppression of rotational relaxation and reduced hydration upon binding to DNA. These dyes are not intercalating; they bind to the minor groove of the DNA in the A-T rich regions. Hoechst dyes are often used to distinguish condensed pyknotic nuclei in apoptotic cells. Briefly, the Hoechst dye stock solution was prepared by dissolving the contents of one vial (100 mg) in 10 mL of deionized water to create a 10 mg/mL (16.23 mM) solution. Then, 5×10^5 cells/mL of A549, MCF-7, HEK293, and HaCaT cells were seeded in 24-well plates on round glass coverslips. Cell cultures were treated with the complexes 3 and 4 using the IC50 calculated previously. At 12 h, the coverslips were removed from the wells. Cells were fixed by adding 200 μL of 4% paraformaldehyde. Later, cells were incubated at 37 °C for 30 min and washed 2 times with PBS. Then, 200 μL Hoechst 33258 (1:1000) was added to the sample and protected from light following incubation at room temperature for 30 min. Subsequently, they were washed 2 times with PBS.

For experiment [6] the test system is unchanged. Description: Apoptosis detection with annexin V FITC and propidium iodide. Format: cell-based. As to conditions: at IC50, 12 h. How it is done: Annexin V detects apoptosis by binding to phosphatidylserine, which during this process is exposed in the outer layer of the cell membrane. Its conjugation with fluorochromes such as FITC allows visualization of this binding by epifluorescence microscopy in the green channel. The detection of apoptosis was determined with the annexin V kit conjugated with the fluorophore FITC (Thermo, cat. 88-8005-72) under the following protocol: 0.5 × 10^6 cells/mL of A549, MCF-7, HEK293, and HaCaT cells were seeded in 24-well plates on round glass coverslips treated with L-polylysine. […] Cultures were incubated for 12 h under standard culture conditions. Subsequently, the cells were washed with 500 μL of cold PBS and incubated for 5 min in a 1X solution of annexin-binding buffer. Next, 15 μL of annexin V conjugate and 5 μL of propidium iodide (PI) were added, and the mixture was incubated over 15 min at room temperature. After washing with 1X buffer, the cells were observed using an epifluorescence microscope (Nikon Eclipse E400). The red channel (TRITC) identified necrosis due to PI intercalation, while the green channel (FITC) detected apoptosis through binding of the phosphatidylserine–annexin V complex.

Experiment [7] shares this test system. In words: Acridine orange / propidium iodide staining, epifluorescence microscopy. Format: cell-based. An excerpt: The purpose of using acridine orange (AO) and propidium iodide (PI) is to take advantage of their introduction of viable cells (AO) and non-viable cells (AO/PI) by their intercalating ability in DNA of cells, which by excitation with a wavelength of 400 nm emit radiation of lower energy and longer wavelength (green and red light, respectively). This technique allows differentiating the distinct states in which a cell is found; AO is able to cross the cell membrane regardless of its membrane integrity, so the compound stains all cells, emitting green light and, in some cases, orange if it binds to RNA or where there is high lysosomal activity. PI penetrates the cell when its membrane is damaged by intercalating with higher affinity to DNA and emits red color, eclipsing the intensity caused by AO staining. Briefly, the protocol used for this technique was: 0.5×10^6 cells/mL of A549, MCF-7, HEK293, and HaCaT cells were seeded in 24-well plates on round glass coverslips. All cell cultures were treated with complexes 3 and 4 with the IC50 calculated previously. At 12 h, the coverslips were removed from the wells. Later, 5 μL of a 1:1 mixture of the dyes (50 μg/mL of AO and 100 μg/mL of PI) was added to 5 μL of sample and coverslips were flipped and placed on a slide for observation.

For experiment [8], the system named is HaCaT. The arrangement: method as in doi:10.1016/j.ica.2020.119542. As to conditions: value taken from previous work ref 16; cited from earlier work.
Experiment [9] deals with A549 (lung cancer). Also noted: method as in doi:10.1016/j.ica.2020.119542. As to conditions: value taken from previous work ref 16; cited from earlier work.
The subject of experiment [10] is HEK293. As to conditions: HEK293, 24 h, MTS.
Experiment [11] concerns MCF-7 (breast cancer). As to conditions: for IC50: MCF-7, 24 h, MTS; for Selectivity Index (SI): IC50(HaCaT)/IC50(MCF-7).
Experiment [12] deals with A549 (lung cancer). As to conditions: for IC50: A549, 24 h, MTS; for Selectivity Index (SI): IC50(HaCaT)/IC50(A549).
Experiment [13] deals with HaCaT. As to conditions: 24 h, MTS.
For experiment [14], the system named is A549, MCF-7, HaCaT and HEK293 cell lines. As to conditions: for IC50: all the cell lines tested; for increase in potency over cisplatin: considering the concentrations used to determine the IC50.
Setting [15] is: complexes at IC50 of Table 5, 12 h.

Read-outs that look alike come from different tables or passages of the source.

For orientation: IC50 means the concentration needed to halve the response being measured. Regarding `N.N.[Cl][Pt][Cl]` [Cisplatin, cis-[PtCl2(NH3)2]], the IC50 (with MCF-7 (breast cancer) [1]; with HEK293 [2]; in experiment [3]; with HaCaT [8]; with A549 (lung cancer) [9]) was 25 µM each time. In addition, the DNA fragmentation pattern result in [4] (cisplatin 25 µM) is recorded as “DNA fragmentation is observed”. Besides, in [5] (cisplatin 25 µM), the “nuclear morphology, Hoechst 33258” value is recorded as “evident change in nuclear structure”. In [6], the “annexin V-FITC / PI fluorescence” value is recorded as “intense signal in the green channel (FITC)”. Also, the “morphology, AO/PI staining” value in experiment [7] (cisplatin 25 µM) is on record as “show red nuclei, indicating a decrease in cell viability”.
`O=[N+]([O-])[O-].O=[N+]([O-])[O-].[Cu+2]` [Cu(NO3)2, Copper(II) nitrate]: the half-inhibitory concentration (IC50) with HEK293 [10] stood at 47600 ± 3220 nM; in the experiment with MCF-7 (breast cancer) [11], 70200 ± 2030 nM; in the experiment on A549 (lung cancer) [12] it was 47800 ± 3220 nM; in the experiment on HaCaT [13] it was 55500 ± 2030 nM.
Turning to “Aqua(1,10-phenanthroline-κ^2N,N’)(β^2-methylalaninate-κ^2N,O)copper(II) nitrate [Compound 3]”, the concentration for half-maximal inhibition (IC50) is 190 ± 10 nM in the experiment on HEK293 [10]; 350 ± 20 nM with MCF-7 (breast cancer) [11]; 240 ± 20 nM with A549 (lung cancer) [12]; below 1000 nM in [14]; 210 ± 20 nM in the experiment with HaCaT [13]. Moreover, the “Selectivity Index (SI)” value in the experiment on MCF-7 (breast cancer) [11] was determined as 0.6; in the experiment on A549 (lung cancer) [12] it was 0.875. In addition, the DNA fragmentation pattern result in [4] (complexes at IC50 of Table 5) is given as “specific indication of an apoptotic process”. Moreover, the “nuclear morphology, Hoechst 33258” value in [5] (setting [15]) is “decrease in the size of the nuclei, irreversible chromatin condensation, and nuclear fragmentation”. Also, the “annexin V-FITC / PI fluorescence” value in experiment [6] is given as “significant induction of apoptosis”. Besides, in experiment [7] (complexes at IC50, 12 h), the “morphology, AO/PI staining” value is “induced morphological features that, in principle, indicate a cell death process”. The “increase in potency over cisplatin” value in [14] is 83 times.
As to “ethanol(1,10-phenanthroline-κ^2N,N’)(β^2-phenylalaninate-κ^2N,O)copper(II) nitrate [Compound 4]”, the IC50 is 320 ± 20 nM in the experiment with HEK293 [10]; 400 ± 20 nM in the experiment with MCF-7 (breast cancer) [11]; 220 ± 50 nM in the experiment on A549 (lung cancer) [12]; below 1000 nM in experiment [14]; 350 ± 90 nM in the experiment with HaCaT [13]. Moreover, the “Selectivity Index (SI)” value in the experiment on MCF-7 (breast cancer) [11] was 0.87; in the experiment on A549 (lung cancer) [12], 1.59. Further, in experiment [4] (complexes at IC50 of Table 5), the DNA fragmentation pattern result was “specific indication of an apoptotic process”. The “nuclear morphology, Hoechst 33258” value in experiment [5] (setting [15]) was “decrease in the size of the nuclei, irreversible chromatin condensation, and nuclear fragmentation”. Moreover, the “annexin V-FITC / PI fluorescence” value in experiment [6] is recorded as “significant induction of apoptosis”. Further, in experiment [7] (complexes at IC50, 12 h), the “morphology, AO/PI staining” value is given as “induced morphological features that, in principle, indicate a cell death process”. In experiment [14], the “increase in potency over cisplatin” value stood at 83 times.
